Reference: PMC7939532 (Oncotarget, 2021)
Where “and” joins values, the source holds several entries; their conditions need not be identical. Equal values may be shown once. Read-outs that look alike come from different tables or passages of the source. Square brackets hold non-standard residues; d marks the D form. Primed or numbered codes have the meaning given here. Ends that are not written are not given here. Peptide text beside a SMILES is read from it. * marks the point of attachment. d1Nal = N[C@H](Cc1cccc2ccccc12)C(=O)O; Palmitoyl = CCCCCCCCCCCCCCCC(=O)*; PEG2′ = not defined here

Experiments:
[1] = target: T1, Ghrelin receptor (Homo sapiens, UniProt Q92847); test: Inositol phosphate turnover assay in COS-7 cells transfected with the Ghrelin receptor; conditions: for x-fold over No. 2: EC50 relative to peptide 2; for Δeff (%): efficacy, mean ± SEM of |Efficacymax - Efficacymin|
T1 sequence (Q92847 whole entry, species assumed): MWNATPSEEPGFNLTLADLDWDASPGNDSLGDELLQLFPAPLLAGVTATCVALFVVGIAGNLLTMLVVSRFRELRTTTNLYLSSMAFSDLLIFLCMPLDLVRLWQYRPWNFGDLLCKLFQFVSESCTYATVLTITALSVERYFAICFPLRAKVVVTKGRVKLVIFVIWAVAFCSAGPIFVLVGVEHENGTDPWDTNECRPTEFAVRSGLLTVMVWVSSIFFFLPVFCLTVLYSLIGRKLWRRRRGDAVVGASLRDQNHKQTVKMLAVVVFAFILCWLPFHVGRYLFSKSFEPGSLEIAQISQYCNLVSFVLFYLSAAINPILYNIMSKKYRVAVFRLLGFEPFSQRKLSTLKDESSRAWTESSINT
Description: Data were analyzed with GraphPad Prism 6.0 program (GraphPad Software, San Diego, CA, USA). EC50, pEC50 and Emax values were obtained from concentration–response curves. All signal transduction assays were performed in duplicate and repeated at least two times independently.

[2] = target: T1, Ghrelin receptor; test: Competitive binding assay with ^125I-His-Ghrelin in COS-7 cells stably transfected with the Ghrelin receptor; set-up: expressed in transfected cells; host or cells: COS-7; conditions: for x-fold over Ghrelin: Ki relative to Ghrelin; for x-fold over 2: Ki relative to peptide 2; for Ki: competition with ^125I-His-Ghrelin, read-out: Ki ± SD
Description: Each experiment was performed in triplicates. IC50 values of the binding curves were calculated by nonlinear regression on a sigmoidal dose-response based model by using program GraphPad Prism 6.0. Ki values were calculated by Cheng-Prusoff equation.

[3] = set-up: species or system rats; conditions: rat, in vivo
[4] = rat, in vivo
Description: Biodistribution in distinct organs and tissues of healthy rats was measured at 5 and 60 min after single intravenous injection of the ^68Ga- or ^64Cu-radiotracers 9b-c, 10b-c, and 15b-c in rats (see ^68Ga-tracers in Figure 3 and ^64Cu-tracers in Figure 4).
The molar activity was approximately 30 GBq × mmol^–1 at the time of injection (Table 3). […] Animals were sacrificed at 5 and 60 min post injection. Blood and the major organs were collected, weighed, and counted in a Wallac WIZARD automatic gamma counter (PerkinElmer, Germany). The radioactivity of the samples was decay-corrected and calibrated by comparing the counts in tissue with the counts in aliquots of the injected radiotracer that had been measured in the gamma counter at the same time. The activity amount in organs that could be completely extracted was expressed as percent of injected dose (% ID). The activity concentrations in tissues were calculated as standardized uptake values [SUV = (activity × mL^–1 tissue)/(injected activity/body weight), mL × g^–1)]. The SUV was used for better comparison within animals of different size and weight and with other species and to compare the biodistribution and the PET data.

[5] = set-up: species or system mice; conditions: mouse, in vivo
Description: (§1) The tumor mice with xenotransplanted PC-3 or DU-145 tumors were used when the tumors reached 0.54 ± 0.34 g or 0.18 ± 0.09 g (mean ± SD, n = 9), respectively. […] The mice were sacrificed one hour after injection and the organs and tissues were extracted. The activity measurements and calculations were carried out as described for the rat biodistribution experiments.

[6] = test system: PC-3 tumors; test: Biodistribution of 10c in PC-3 tumor bearing mice with blocking; type: in vivo; conditions: one hour after injection
Description: as §1

[7] = test system: DU-145 tumors; test: Biodistribution of 10c in DU-145 tumor bearing mice with blocking; type: in vivo; conditions: one hour after injection
Description: as §1

[8] = test system: DU-145 tumors; set-up: species or system mice; conditions: mouse, in vivo
Description: (§2) Anesthetized, spontaneously breathing animals were allowed to stabilize for 10 min after preparation. The animals were positioned on a heated bed to maintain the body temperature at 37°C. The PET studies were carried out with a NanoScanPET/CT (Mediso, Hungary) or a microPET P4® (Siemens preclinical solutions, Knoxville, TN, USA). The activity of the injection solution was measured in a well counter (Isomed 2000, Dresden, Germany) cross-calibrated to the PET scanners. A 10 min transmission scan was recorded during this time for each subject by using a rotating point source of ^57Co (microPET). The transmission scans were used to correct the emission scan for γ-ray attenuation caused by body tissues and supporting structures; it was also used to demarcate the body field for image registration. […] At the end of the experiment, the animals were deeply anesthetized and sacrificed by an intravenous injection of potassium chloride. Acquisition was performed in 3D list mode. Emission data were collected continuously. The list mode data were sorted into sinograms with 32 or 38 frames (15 × 10 s, 5 × 30 s, 5 × 60 s, 4 × 300 s, 3 × 600 s, or 9 × 600 s). The data were decay-, scatter-, and attenuation-corrected. The frames from the microPET were reconstructed by Ordered Subset Expectation Maximization applied to 3D sinograms (OSEM3D) with 14 subsets, 15 OSEM3D iterations, 25 maximum a posteriori (MAP) iterations, and 1.8 mm resolution using the […] algorithm (Siemens Preclinical Solutions, Knoxville, TN, USA). The voxel size was 0.07 by 0.07 by 0.12 cm. The PET images measured with the nanoScanPET/CT were reconstructed using a three-dimensional Ordered Subsets Expectation Maximization (3D-OSEM) algorithm (Tera-Tomo, Mediso Ltd., Hungary) into dynamic frames as described and with a voxel size of 0.05 cm. No correction for partial volume effects was applied. The image volume data were converted to Siemens ECAT7 format for further processing and were then analyzed using the ROVER software (ABX GmbH, Radeberg, Germany). Masks for defining three-dimensional regions of interest (ROI) were set and the ROI's were defined by thresholding and ROI time activity curves (TAC) were derived for the subsequent data analysis. […] The ROIs were so determined that no surrounding tissue was included. The ROI data and TAC were further analyzed using R (R is available as Free Software under the terms of the Free Software Foundation's GNU General Public License in source code form) and especially developed program packages (Jörg van den Hoff, Frank Hofheinz, Helmholtz-Zentrum Dresden-Rossendorf, Dresden, Germany).

[9] = test system: PC-3 tumors; set-up: species or system mice; conditions: mouse, in vivo
Description: as §2

[10] = EC50, inverse agonist potency, COS-7 cells transfected with the Ghrelin receptor
[11] = COS-7 cells transfected with the Ghrelin receptor
[12] = inverse agonist potency, COS-7 cells transfected with the Ghrelin receptor
[13] = pEC50 ± SEM, COS-7 cells transfected with the Ghrelin receptor

x-fold over No. 2 [1] | Δeff (%) [1] | pEC50 ± SEM [1, 11] | EC50 [1, 12] [nM] | Molecule | also measured
2 | 86 ± 2% |  |  | CCCCCCCCCCCCCCCC(=O)N[C@@H](CCCCN)C(=O)N[C@@H](CCCCN)C(=O)N[C@H](Cc1cccc2ccccc12)C(=O)N[C@@H](Cc1ccccc1)C(=O)N[C@H](Cc1c[nH]c2ccccc12)C(=O)N[C@@H](CC(C)C)C(=O)N[C@@H](CC(C)C)C(N)=O [compound 6, Palm-KK-(D-1-Nal)-FwLL-NH2] (Palmitoyl-KK[d1Nal]F[dW]LL-NH2) | EC50 [1, 10]: 11 nM
8 | 98% and 98 ± 4% | 7.5 ± 0.07 | 34.7 | [^natGa]Ga-NODAGA-KK-(D-1-Nal)-FwLL-NH2 [10a] | x-fold over Ghrelin [2]: 57; x-fold over 2 [2]: 6; Ki [2]: 30.3 ± 7.5 nM
 | 63% and 63 ± 2% |  |  | CC(C)C[C@H](NC(=O)[C@H](CC(C)C)NC(=O)[C@@H](Cc1c[nH]c2ccccc12)NC(=O)[C@H](Cc1ccccc1)NC(=O)[C@@H](Cc1cccc2ccccc12)NC(=O)[C@H](CCCCN)NC(=O)[C@@H](N)CCCCN)C(N)=O [compound 4, KK-(D-1-Nal)-FwLL-NH2] (H-KK[d1Nal]F[dW]LL-NH2) | EC50 [1, 10]: 13 nM; EC50 [1, 13]: 12.6 nM
132 | 85 ± 6% | 6.2 ± 0.10 | 592 | Palm-KK-(D-1-Nal)-FwLK[^natGa]Ga-NODAGA-NH2 [17a] | 
3 | 90 ± 4% | 7.9 ± 0.07 | 13.6 | K[^natGa]Ga-NODAGA-K-(D-1-Nal)-FwLK(Palm)-NH2 [16a] | 
6 | 92% and 92 ± 3% | 7.5 ± 0.06 | 28.7 | Palm-K[^natGa]Ga-NODAGA-K-(D-1-Nal)-FwLL-NH2 [13a] | 
111 | 85 ± 3% | 6.3 ± 0.08 | 499 | PEG2-KK-(D-1-Nal)-FwLL-NH2 [compound 8] | 
59 | 75 ± 6% | 6.6 ± 0.10 | 267 | K(Palm)-K-(D-1-Nal)-FwLK[^natGa]Ga-NODAGA-NH2 [18a] | 
14 | 88% and 88 ± 8% | 7.2 ± 0.10 | 64.8 | [^natGa]Ga-NODAGA-K-(D-1-Nal)-FwLL-NH2 [9a] | 
 | 85% and 85 ± 2% |  |  | CCCCCCCCCCCCCCCC(=O)NCCCC[C@H](NC(=O)[C@H](CC(C)C)NC(=O)[C@@H](Cc1c[nH]c2ccccc12)NC(=O)[C@H](Cc1ccccc1)NC(=O)[C@@H](Cc1cccc2ccccc12)NC(=O)[C@@H](N)CCCCN)C(N)=O [compound 5] (H-K[d1Nal]F[dW]LK(Palmitoyl)-NH2) | EC50 [1, 10]: 3.5 nM; EC50 [1, 13]: 3.16 nM
 | 42% and 42 ± 1% |  |  | CC(C)C[C@H](NC(=O)[C@@H](Cc1c[nH]c2ccccc12)NC(=O)[C@H](Cc1ccccc1)NC(=O)[C@@H](Cc1cccc2ccccc12)NC(=O)[C@@H](N)CCCCN)C(=O)N[C@@H](CCCCN)C(N)=O [compound 3, K-(D-1-Nal)-FwLK-NH2] (H-K[d1Nal]F[dW]LK-NH2) | EC50 [1, 10]: 162 nM; EC50 [1, 13]: 158 nM
5 | 92% and 92 ± 4% | 7.7 ± 0.06 | 20.3 | [^natGa]Ga-NODAGA-K(Palm)-K-(D-1-Nal)-FwLL-NH2 [12a] | x-fold over Ghrelin [2]: 126; x-fold over 2 [2]: 14; Ki [2]: 66.9 ± 25.7 nM
 |  | 6.8 ± 0.10 | 166 | K-(D-1-Nal)-FwLK(PEG2)-NH2 (K[d1Nal]F[dW]LK(PEG2′)-NH2) [compound 7] | 
37 | 61 ± 3% |  |  | K-(D-1-Nal)-FwLK(PEG2)-NH2 [compound 7] | 
4 | 89 ± 3% | 7.8 ± 0.05 | 16.5 | [^natGa]Ga-NODAGA-KK-(D-1-Nal)-FwLK(Palm)-NH2 [15a] | x-fold over Ghrelin [2]: 21; x-fold over 2 [2]: 2; Ki [2]: 11 ± 4.3 nM
> 1000 |  |  | > 1000 | PEG2-K[^natGa]Ga-NODAGA-K-(D-1-Nal)-FwLL-NH2 [14a] | EC50 ([1]; value given in the text): 1800 ± 600 nM
 |  |  |  | [^64Cu]Cu-NODAGA-NH-K-K-(D-1-NaI)-F-w-L-L-NH2 [10c] | original compound found in the kidneys [3]: 1%; original compound found in the liver [3]: 14%; original compound found in the urine [3]: 6%; brain uptake [4]: 0.06-0.1 SUV; specific tumor uptake relative to the compound of Charron et al. [5]: approximately 10 times; uptake in organs and tissues [5]: > 0.3 SUV; tumor to muscle ratio as percent of control ([6]; blocked with 1 mg/kg Ghrelin): 83.4 ± 18.4%; tumor to muscle ratio as percent of control ([6]; blocked with 1 mg/kg KKD): 51.2 ± 4.5%; tumor to muscle ratio as percent of control ([7]; blocked with 1 mg/kg Ghrelin): 71.0 ± 10.7%; tumor to muscle ratio as percent of control ([7]; blocked with 1 mg/kg KKD): 59.7 ± 30.2%; activity concentration in tumor [8]: 1.34 ± 0.24 SUV; activity concentration in tumor ([8]; 1 mg/kg): 0.68 ± 0.05 SUV; activity concentration in tumor [9]: 2.02 ± 0.28 SUV; activity concentration in tumor ([9]; 1 mg/kg): 0.99 ± 0.05 SUV
